Format in all cases: cell-based
The target in one assay is T1, human NMUR1 receptor (Homo sapiens, UniProt Q9HB89).
T1 construct: expressed in transfected cells; host or cells: CHO-K1
T1 sequence (Q9HB89 1-426): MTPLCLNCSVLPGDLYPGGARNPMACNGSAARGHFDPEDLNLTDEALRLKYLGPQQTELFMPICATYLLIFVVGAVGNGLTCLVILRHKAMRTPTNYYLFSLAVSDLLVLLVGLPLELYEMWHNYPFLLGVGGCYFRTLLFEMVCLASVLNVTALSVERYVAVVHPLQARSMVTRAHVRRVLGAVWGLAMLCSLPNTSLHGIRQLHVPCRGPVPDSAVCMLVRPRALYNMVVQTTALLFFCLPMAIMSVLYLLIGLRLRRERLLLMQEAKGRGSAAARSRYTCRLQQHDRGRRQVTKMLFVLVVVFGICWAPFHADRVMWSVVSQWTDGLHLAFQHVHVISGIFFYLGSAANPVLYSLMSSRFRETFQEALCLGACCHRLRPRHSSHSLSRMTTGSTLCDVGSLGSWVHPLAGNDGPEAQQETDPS
As to the kind of experiment: IP1 Gq HTRF assay, activation of human NMUR1 in buffer. Conditions: CHO-K1 cells expressing human NMUR1, stimulation buffer with 0.1% BSA; read-out: EC50 (hNMUR1) buffer. The text has this: (§1) Example 3: IP1 Gq HTRF Assay Activation of Human NMUR2 or Human NMUR1 in Buffer Application of the Homogenous Time Resolved Fluorescence (HTRF) technology optimized for Gq coupled receptors has been described in detail in the Cisbio IP-One Gq kit manual. In brief, a FRET signal (FRET: fluorescence resonance energy transfer) is generated between the donor label of an IP-One antibody (anti-IP1-Tb) and the acceptor label of a tagged IP-One (IP1-d2). Agonism of a Gq coupled receptor increases intracellular IP-One, which competes with labeled IP-One and leads to a reduction of the FRET signal. Frozen stocks of CHO-K1 cells stably expressing the human NMUR1 or NMUR2 receptor were thawed and 5000 cells were seeded in culture medium (HAM'S F12, 10% FCS) into each well of a 384-well assay plate. After seeding, cells were incubated for 24 h in a humidified incubator at 37° C. and 5% CO2. Next, cells were washed once with 50 μL of wash buffer (20 mM Hepes, 1×HBSS, pH 7.4), followed by addition of either 10 μL of stimulation buffer (20 mM Hepes, 1×HBSS, 50 mM LiCl, 0.1% BSA, pH 7.4). Peptide agonists to be tested were dissolved in 100% DMSO and pre-diluted in stimulation buffer at a suitable concentration range for an 8 pt dose-response curve. 5 μL of peptide pre-dilution were then added to each well, followed by another 5 μL of stimulation buffer to give a final concentration of 1% DMSO. Samples were subsequently incubated for 1 hour in a humidified incubator at 37° C. After addition of 5 μL each of IP1-d2 and anti-IP1-Tb, samples were incubated for another 1 hour at room temperature and FRET signals (ratio 665 nm/620 nm) were measured. EC50 values were calculated by nonlinear regression using a 4-parameter sigmoidal curve fit.
For orientation: In TR-FRET formats the signal depends on donor and acceptor labels being close together.

For assay [1], the target named is T2, human NMUR2 receptor (Homo sapiens, UniProt Q9GZQ4). As to the kind of experiment: IP1 Gq HTRF assay, activation of human NMUR2 in buffer. To be noted: CHO-K1 cells expressing human NMUR2, stimulation buffer with 0.1% BSA; read-out: EC50 (hNMUR2) buffer. The arrangement: expressed in transfected cells; host or cells: CHO-K1.
Source text: as §1

The target of assay [2] is T2, human NMUR2 receptor. Briefly: IP1 Gq HTRF assay, activation of human NMUR2 in human plasma. The arrangement: expressed in transfected cells; host or cells: CHO-K1. To be noted: CHO-K1 cells expressing human NMUR2, 100% human plasma; read-out: EC50 (hNMUR2) human plasma. The text has this:
Example 4: IP1 Gq HTRF Assay Activation of Human NMUR2 in Human Plasma Application of the Homogenous Time Resolved Fluorescence (HTRF) technology optimized for Gq coupled receptors has been described in detail in the Cisbio IP-One Gq kit manual. In brief, a FRET signal is generated between the donor label of an IP-One antibody (anti-IP1-Tb) and the acceptor label of a tagged IP-One (IP1-d2). Agonism of a Gq coupled receptor increases intracellular IP-One, which competes with labeled IP-One and leads to a reduction of the FRET signal. Frozen stocks of CHO-K1 cells stably expressing the human NMUR1 receptor or human NMUR2 receptor were thawed and 5000 cells were seeded in culture medium (HAM'S F12, 10% FCS) into each well of a 384-well assay plate. After seeding, cells were incubated for 24 h in a humidified incubator at 37° C. and 5% CO2. Next, cells were washed once with […] of wash buffer (20 mM Hepes, 1×HBSS, pH 7.4), followed by addition of […] (100% human plasma, 50 mM LiCl). Peptide agonists to be tested were dissolved in 100% DMSO and pre-diluted in plasma at a suitable concentration range for an 8 pt dose-response curve. 5 μL of peptide pre-dilution were then added to each well, followed by another 5 μL of plasma to give a final concentration of 1% DMSO. Samples were subsequently incubated for 1 hour in a humidified incubator at 37° C. The plasma solution was replaced by 20 μL of stimulation buffer. After addition of 5 μL each of IP1-d2 and anti-IP1-Tb, samples were incubated for another 1 hour at room temperature and FRET signals (ratio 665 nm/620 nm) were measured. EC50 values were calculated by nonlinear regression using a 4-parameter sigmoidal curve fit.

The record followed here is patent publication US20240279278A1, “NMU RECEPTOR 2 AGONISTS” (Boehringer Ingelheim International GmbH, priority 2023, published 2024).

A word on the EC50: it is the concentration that produces a half-maximal response.

Starred links: 1 amine or outer side, 2 acyl side, 3 side chain; linkers in the order of their positions; H or OH if unused. Non-standard residues stand in square brackets, D forms with d. Residues, ends and D or L forms follow the SMILES beside them. *: point of attachment. Pipz(1-CH2CO,4-CH2CH2NH) = O=C(CN1CCN(CCN[*:1])CC1)[*:2]; C18 diacid = O=C(O)CCCCCCCCCCCCCCCCC(=O)*; γGlu = O=C(O)[C@H](CCC(=O)[*:2])N[*:1]; 4Pal = N[C@@H](Cc1ccncc1)C(=O)O; NMeL = CN[C@@H](CC(C)C)C(=O)O; NMeA = CN[C@@H](C)C(=O)O; Nle = CCCC[C@H](N)C(=O)O; Sar = CNCC(=O)O A value given as a limit tells only on which side of the number the result lay.

T2 sequence (Q9GZQ4 whole entry): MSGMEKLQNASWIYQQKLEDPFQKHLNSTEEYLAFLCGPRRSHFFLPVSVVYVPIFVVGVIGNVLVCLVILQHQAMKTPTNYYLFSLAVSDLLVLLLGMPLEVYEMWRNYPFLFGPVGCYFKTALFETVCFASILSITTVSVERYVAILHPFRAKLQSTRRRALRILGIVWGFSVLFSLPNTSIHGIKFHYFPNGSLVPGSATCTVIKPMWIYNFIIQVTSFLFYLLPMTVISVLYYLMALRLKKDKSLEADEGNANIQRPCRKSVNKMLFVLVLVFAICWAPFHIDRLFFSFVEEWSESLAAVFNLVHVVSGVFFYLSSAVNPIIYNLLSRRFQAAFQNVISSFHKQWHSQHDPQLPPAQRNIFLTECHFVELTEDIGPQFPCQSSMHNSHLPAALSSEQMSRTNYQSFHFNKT

Consider `CCCC[C@H](NC(=O)[C@H](CC(C)C)N(C)C(=O)[C@H](Cc1ccccc1)NC(=O)[C@H](Cc1ccc(O)cc1)NC(=O)CN1CCN(CCNC(=O)CN(C)C(=O)CN(C)C(=O)CN(C)C(=O)CN(C)C(=O)CN(C)C(=O)CN(C)C(=O)CN(C)C(=O)CN(C)C(=O)CN(C)C(=O)CN(C)C(=O)CN(C)C(=O)CN(C)C(=O)CN(C)C(=O)CN(C)C(=O)CN(C)C(=O)CC[C@H](NC(=O)CC[C@H](NC(=O)CC[C@H](NC(=O)CCCCCCCCCCCCCCCCC(=O)O)C(=O)O)C(=O)O)C(=O)O)CC1)C(=O)N[C@@H](Cc1ccncc1)C(=O)N(C)[C@@H](C)C(=O)N[C@@H](CCCNC(=N)N)C(=O)NCC(N)=O` [Compound 58, C18DA-gGlu3-Sar15-AEPipAc-Tyr-Phe-NMeLeu-Nle-4Pal-NMeAla-Arg-Gly-NH2] ({C18 diacid-γGlu-γGlu-γGlu}-[Sar][Sar][Sar][Sar][Sar][Sar][Sar][Sar][Sar][Sar][Sar][Sar][Sar][Sar][Sar][Pipz(1-CH2CO,4-CH2CH2NH)]YF[NMeL][Nle][4Pal][NMeA]RG-NH2), for which the EC50 was above 1000 nM on human NMUR1 receptor, 140 nM on human NMUR2 receptor [1] and 709 nM on human NMUR2 receptor [2].
For the compound `CCCC[C@H](NC(=O)[C@H](CC(C)C)N(C)C(=O)[C@H](Cc1ccccc1)NC(=O)[C@H](Cc1ccc(O)cc1)NC(=O)CN1CCN(CCNC(=O)CN(C)C(=O)CN(C)C(=O)CN(C)C(=O)CN(C)C(=O)CN(C)C(=O)CN(C)C(=O)CN(C)C(=O)CN(C)C(=O)CN(C)C(=O)CN(C)C(=O)CN(C)C(=O)CN(C)C(=O)CN(C)C(=O)CN(C)C(=O)CN(C)C(=O)CC[C@H](NC(=O)CC[C@H](NC(=O)CC[C@H](NC(=O)CC[C@H](NC(=O)CCCCCCCCCCCCCCCCCCC(=O)O)C(=O)O)C(=O)O)C(=O)O)C(=O)O)CC1)C(=O)N[C@@H](CCCN)C(=O)N1CCC[C@H]1C(=O)N[C@@H](CCCNC(=N)N)C(=O)NCC(N)=O` [Compound 3, C20DA-gGlu4-Sar15-AEPipAc-Tyr-Phe-NMeLeu-Nle-Orn-Pro-Arg-Gly-NH2] (HELM PEPTIDE1{[O=C(O)CCCCCCCCCCCCCCCCCCC(=O)[*:2]].[gGlu].[gGlu].[gGlu].[gGlu].[Sar].[Sar].[Sar].[Sar].[Sar].[Sar].[Sar].[Sar].[Sar].[Sar].[Sar].[Sar].[Sar].[Sar].[Sar].[O=C(CN1CCN(CCN[*:1])CC1)[*:2]].Y.F.[meL].[Nle].[Orn].P.R.G.[am]}$$$$V2.0), the half-maximal effective concentration (EC50) amounted to 440 nM on human NMUR1 receptor, 1.9 nM at human NMUR2 receptor [1] and 5.6 nM on human NMUR2 receptor [2].
As to `CCCC[C@H](NC(=O)[C@H](CC(C)C)N(C)C(=O)[C@H](Cc1ccccc1)NC(=O)[C@H](Cc1ccc(O)cc1)NC(=O)CN1CCN(CCNC(=O)CN(C)C(=O)CN(C)C(=O)CN(C)C(=O)CN(C)C(=O)CN(C)C(=O)CN(C)C(=O)CN(C)C(=O)CN(C)C(=O)CN(C)C(=O)CN(C)C(=O)CN(C)C(=O)CN(C)C(=O)CC[C@H](NC(=O)CC[C@H](NC(=O)CC[C@H](NC(=O)CC[C@H](NC(=O)CCCCCCCCCCCCCCCCC(=O)O)C(=O)O)C(=O)O)C(=O)O)C(=O)O)CC1)C(=O)N[C@@H](CCN)C(=O)N1CCC[C@H]1C(=O)N[C@@H](CCCNC(=N)N)C(=O)NCC(N)=O` [Compound 41, C18DA-gGlu4-Sar12-AEPipAc-Tyr-Phe-NMeLeu-Nle-Dbu-Pro-Arg-Gly-NH2], the figures for the concentration for a half-maximal effect (EC50) on human NMUR1 receptor, at human NMUR2 receptor [1] and on human NMUR2 receptor [2] were 1300 nM, 2 nM and 12.2 nM, respectively.
Taken in the same sequence, the figures for `CCCC[C@H](NC(=O)[C@H](CC(C)C)N(C)C(=O)[C@H](Cc1ccccc1)NC(=O)[C@H](Cc1ccc(O)cc1)NC(=O)CN1CCN(CCNC(=O)CN(C)C(=O)CN(C)C(=O)CN(C)C(=O)CN(C)C(=O)CN(C)C(=O)CN(C)C(=O)CN(C)C(=O)CN(C)C(=O)CN(C)C(=O)CN(C)C(=O)CN(C)C(=O)CN(C)C(=O)CN(C)C(=O)CN(C)C(=O)CN(C)C(=O)CC[C@H](NC(=O)CC[C@H](NC(=O)CC[C@H](NC(=O)CCCCCCCCCCCCCCCCCCC(=O)O)C(=O)O)C(=O)O)C(=O)O)CC1)C(=O)N[C@@H](CCCCN)C(=O)N1CCC[C@H]1C(=O)N[C@@H](CCCNC(=N)N)C(=O)NCC(N)=O` [Compound 49, C20DA-gGlu3-Sar15-AEPipAc-Tyr-Phe-NMeLeu-Nle-Lys-Pro-Arg-Gly-NH2] (HELM PEPTIDE1{[O=C(O)CCCCCCCCCCCCCCCCCCC(=O)[*:2]].[gGlu].[gGlu].[gGlu].[Sar].[Sar].[Sar].[Sar].[Sar].[Sar].[Sar].[Sar].[Sar].[Sar].[Sar].[Sar].[Sar].[Sar].[Sar].[O=C(CN1CCN(CCN[*:1])CC1)[*:2]].Y.F.[meL].[Nle].K.P.R.G.[am]}$$$$V2.0) were 1300 nM, 11 nM and 25.2 nM.
On to `CCCC[C@H](NC(=O)[C@H](CC(C)C)N(C)C(=O)[C@H](Cc1ccccc1)NC(=O)[C@H](Cc1ccc(O)cc1)NC(=O)CN1CCN(CCNC(=O)CN(C)C(=O)CN(C)C(=O)CN(C)C(=O)CN(C)C(=O)CN(C)C(=O)CN(C)C(=O)CN(C)C(=O)CN(C)C(=O)CN(C)C(=O)CC[C@H](NC(=O)CC[C@H](NC(=O)CC[C@H](NC(=O)CCCCCCCCCCCCCCCCC(=O)O)C(=O)O)C(=O)O)C(=O)O)CC1)C(=O)N[C@@H](CCCNC(=N)N)C(=O)N(C)[C@@H](C)C(=O)N[C@@H](CCCNC(=N)N)C(=O)NCC(N)=O` [Compound 73, C18DA-gGlu3-Sar9-AEPipAc-Tyr-Phe-NMeLeu-Nle-Arg-NMeAla-Arg-Gly-NH2] (HELM PEPTIDE1{[O=C(O)CCCCCCCCCCCCCCCCC(=O)[*:2]].[gGlu].[gGlu].[gGlu].[Sar].[Sar].[Sar].[Sar].[Sar].[Sar].[Sar].[Sar].[Sar].[O=C(CN1CCN(CCN[*:1])CC1)[*:2]].Y.F.[meL].[Nle].R.[meA].R.G.[am]}$$$$V2.0), for which the half-maximal effective concentration (EC50) was found to be 540 nM at human NMUR1 receptor, 1.9 nM at human NMUR2 receptor [1] and 15.6 nM on human NMUR2 receptor [2].
